In US12371676B2, “Circularly permutated haloalkane transferase fusion molecules” (MAX-PLANCK-GESELLSCHAFT ZUR FÖRDERUNG DER WISSENSCHAFTEN E. …, priority 2019, dated 2025):

Experiments:
[1] = FP kinetic assay of calcium integrators (split integrator, CaProLa); assay type: biochemical; details: in combination with the calmodulin/M13 sensor system; versus PEP1
Method: FIG. 6 M13—cpHaloΔ9mer and 9mer—CaM linker length optimization: All combinations of split integrators composed of M13—(GGS)1-3—cpHaloΔ9mer and 9mer—(GGS)1-3—CaM were tested in an FP kinetic assay in the presence of calcium or EGTA.
FIG. 8 Performance of CaProLa constructs with different M13—CaM linkers: FP kinetics of different CaProLa constructs and the split integrator under four conditions: in the presence of calcium (red), in the absence of calcium (purple), in the absence of calcium but spiked with calcium after 1 h (cyan), in the presence of calcium, followed by an EGTA spike to stop the reaction, followed by a calcium spike to restart the reaction (green). Small arrows indicate the EGTA and calcium spikes. Curves in the presence of calcium (red) were fitted to a second order reaction rate equation to determine the rate constants. All experiments were performed in triplicates. GGTGGS: SEQ ID NO 027.
FIG. 11 Performance of second generation CaProLa constructs: A fluorescence polarization kinetic assays with Halo-TMR of CaProLa 2.1-2.3 were performed under four conditions: in the presence of calcium (red), in the absence of calcium (purple), in the absence of calcium but spiked with calcium after 1 h (cyan), in the presence of calcium, followed by an EGTA spike to stop the reaction, followed by a calcium spike (green). Small arrows indicate the EGTA and calcium spikes. […]

[2] = FKBP/FRB model system, FP labelling kinetics with or without rapamycin; assay type: biochemical; details: in combination with a FKPB/FRB sensor system; versus PEP1
Method: FIG. 13 Model system to test split HaloTag™ performance: Left: Scheme explaining the FKBP/FRB based model system. cpHaloΔ and the 9mer peptide are fused to FKBP and FRB, respectively, to render the split complementation and activity dependent on their rapamycin dependent interaction. Right: Labelling kinetics of the model system were followed via a fluorescence polarization assay in the presence or absence of rapamycin (Rap). Halo-TMR was used as substrate and each experiment was performed in triplicate.
FIG. 14 Impact of different flexible linkers in the FKBP/FRB model system: Labelling kinetics of split HaloTag™ fused to FKBP and FRB using different flexible linkers were observed via a fluorescence polarization assay in the presence or absence of rapamycin. Halo-TMR was used as substrate and each experiment was performed in triplicate.
The inventors further tested the performance of the split-HaloTag system of the invention for labelling protein-protein interactions in a simple model system. They used the strong interaction of the proteins FKBP and FRB, which is conditional on the presence of the small-molecule drug rapamycin. […] Different flexible linkers (1-3 times GGS) were placed between the interacting proteins (FKBP/FRP) and the split HaloTag™ fragments to assess the effect of linker length and to find well performing linker combinations (FIG. 14). […]

PEP2: 10mer Peptide 145-ARETFQAFRT-154, second partial effector sequence with extra C-terminal threonine (partial sensor sequence)
effect of the extra threonine on reaction speed [1]: significant increase in the reaction speed
effect of the extra threonine on reaction speed [2]: does not have much effect
